Measurements from article PMC6651024, “LIR Motif-Containing Hyperdisulfide β-Ginkgotide is Cytoprotective, Adaptogenic, and Scaffold-Ready” (Molecules, 2019).
“Also recorded” adds a separate entry of the source. Where two headings read alike, the source gives them in different places. Where a SMILES comes first, the peptide text is derived from it.

Legend:
LC3B = assay: Western blot of autophagy marker LC3B (LC3B-I, LC3B-II) in SH-SY5Y cells; assay type: cell-based, human; details: triplicates
Method: The LIR-containing proteins regulate autophagosome formation by interacting with the protein Atg8 (autophagy-related gene, Atg) family through their LIR sequences. […] The SH-SY5Y cells were cultured with or without β-gB1. The autophagy markers, Beclin-1 (BECN1), LC3B-I, and LC3B-II, were identified and quantified by western blot analysis. Beclin-1 plays an important role in regulating both autophagy and cell death, whereas LC3B is an important component of the autophagy pathway and the most widely used marker for autophagosomes. Two of the processed LC3B protein are LC3B-I and LC3B-II. LC3B-I is a truncated LC3B. In contrast, LC3B-II is a truncated and lipidated version of LC3B-I [28, 29]. Importantly, LC3B-II is centrally involved in the events of autophagosome membrane expansion and fusion.
(§1) Rat cardio-myoblast cells (H9c2) and […] neuron-like SH-SY5Y cells were purchased from ATCC and maintained in DMEM (Dulbecco’s modified eagle medium) medium supplemented with 10% fetal bovine serum (FBS), 10,000 U/mL of penicillin, and 10,000 µg/mL of streptomycin at 37 °C, 5% CO2.
(§2) A 25 µg equivalent quantity of each protein samples were resolved on a 10% and 15% SDS-PAGE gel accordingly and transferred onto a nitrocellulose membrane. Immunoblotting was performed using anti-protein antibodies against glyceraldehyde 3-phosphate dehydrogenase (GAPDH) (1:5000), LC3B (1:1500), Beclin-1 (1:1500), Caspase-3 (1:1500), and Caspase-9 (1:1500). Blots were developed with Clarity Max Western ECL blotting substrates. Protein bands were quantitated densitometrically using ImageJ software (ImageJ15.0b, Wayen Rasband, NIH, Bethesda, Maryland, USA), expressed relative to GAPDH, and normalized to the vehicle control cells. Statistical calculations and bar graphs were done using GraphPad Prism software (Version 6.01), and three individual experimental data sets were used for the calculation. Data are presented as means ± SD and compared by the Holm–Sidak multiple t-tests method. P-values pf less than 0.05 were considered significant.

Candida tropicalis = details: concentrations up to 100 µM; cited from earlier work
Escherichia coli = details: concentrations up to 100 µM; cited from earlier work
H9c2 cells [1] = assay type: cell-based, rat; details: 48 h hypoxia, MTT
Method: Autophagy is an integrated stress response that clears the subcellular damages. Previous studies have shown that such damages can be induced by hypoxia and hypoxia-reoxygenation stress. Clearing subcellular damages would increase survivability. In traditional medicine, G. biloba is used as an herbal remedy for acute ischemic stroke and post-stroke recovery. To examine the effects of β-gB1 in hypoxia stress, we used cardio-myoblast H9c2 and SH-SY5Y cells. Cells were cultured with or without β-gB1 and incubated in a hypoxic environment for 48 h before the assessment of cell survival by the MTT assay. […] Importantly, when the concentration of β-gB1 was reduced tenfold from 10 to 1 µM, a 22–24% increase of survivability was still observed in H9c2 and SH-SY5Y cells (Figure 3A–D). […]
Cells were cultured in DMEM with or without β-gB1/S-alkylated β-gB1 (β-gB1Alk) for 48 h under normoxia, hypoxia, and hypoxia-reoxygenation conditions. […] The culture medium was then aspirated, and purple formazan crystals were dissolved in DMSO for colorimetric quantification at 570 nm using a microplate reader with a reference wavelength of 630 nm. […]

caspase-3 = assay: Western blot of caspase-3 in SH-SY5Y cells; assay type: cell-based, human; details: triplicates
Method: (§3) In contrast, the β-gB1-treated cells increased the expression of the LC3B-II isoform by 2.8-fold. […] In addition, the β-gB1-treated cells increased the BECN1 expression by 1.5-fold (Figure 2A,B).
as §1
as §2, with “P-values pf less than 0.05 were considered significant.” left out

H9c2 cells [2] = assay: Hypoxia-reoxygenation injury, MTT assay, H9c2; assay type: cell-based, rat; details: H9c2, 1 µM peptide, 24 h hypoxia then 24 h normoxia, triplicates
Method: Cells were cultured with or without β-gB1 and its S-alkylated β-gB1, first under the hypoxic condition for 24 h and then at a normal oxygen environment for another 24 h. The cell viability under hypoxia-reoxygenation condition was assessed by the MTT assay.
as §1
Cells were seeded in a cell culture medium with/without β-gB1 and incubated at 37 °C, 5% CO2 overnight. The next day, the cells were locked inside a BD GasPak EZ anaerobe pouch system (BD Diagnostics, MD) and incubated at 37 °C for the next 48 h for the hypoxia condition. In addition, the cells were cultured under a normal oxygenated environment for the normoxic control. In hypoxia-reoxygenation experiments, the cells were incubated for 24 h in hypoxic conditions before being incubated for another 24 h under normoxia.
Phosphate-buffered saline (PBS) was used as a vehicle control.

H9c2 cells [3] = assay: MTT-based cell proliferation assay under normoxia, H9c2; design: species or system rat; details: H9c2, 10 µM peptide, 48 h, triplicates
From the text: (§4) In addition, β-gB1 is non-toxic to Vero and BHK (baby hamster kidney) cell lines based on an MTT assay. […] LDH is a cytoplasmic enzyme which is rapidly released into the cell culture medium upon plasma membrane damage and is widely used as a marker for cytotoxicity. Thus, an LDH-release assay measures the level of plasma membrane damage to a cell population.
as §1
Cells were cultured in DMEM with or without β-gB1/S-alkylated β-gB1 (β-gB1Alk) for 48 h under normoxia, hypoxia, and hypoxia-reoxygenation conditions. Phosphate-buffered saline (PBS) was used as a vehicle control. After 48 h, MTT (3-(4,5-dimethylthiazol-2-yl)-2,5-diphenyltetrazolium bromide) reagent was added with a final concentration of 0.5 mg/mL, and it was incubated at 37 °C for 2 h. The culture medium was then aspirated, and purple formazan crystals were dissolved in DMSO for colorimetric quantification at 570 nm using a microplate reader with a reference wavelength of 630 nm. […]

H9c2 cells [4] = assay: LDH release cytotoxicity assay, H9c2; assay type: cell-based, rat; details: H9c2, 10 µM peptide, 48 h, 37 °C; LDH kit, 450 nm; triplicates
From the text: as §4, §1
An LDH release assay was performed using the CytoSelect™ LDH cytotoxicity assay kit (CBA-241, Cell Biolabs, Inc., San Diego, CA, USA). In brief, cells were cultured in DMEM with or without 10 µM of β-gB1 and S-alkylated β-gB1 (β-gB1Alk) for 48 h at 37 °C and 5% CO2. PBS was used for the vehicle control experiment. The culture medium was transferred and mixed with the LDH assay reagent in a ratio of 9:1. The reaction mixture was incubated at 37 °C for 2 h, and colorimetric quantification was performed using a 450 nm wavelength. The assay was performed in experimental triplicates, and statistical calculations and bar graphs were done using GraphPad Prism software (Version 6.01). […]

caspase-9 = assay: Western blot of caspase-9 in SH-SY5Y cells; assay type: cell-based, human; details: triplicates
Method: as §3, §1
as §2, with “P-values pf less than 0.05 were considered significant.” left out

In the case of `CC[C@H](C)[C@@H]1NC(=O)[C@@H]2CSSC[C@H](NC(=O)CNC(=O)[C@@H](NC(=O)[C@H](CCC(=O)O)NC(=O)[C@@H](N)Cc3ccc(O)cc3)[C@@H](C)O)C(=O)N[C@@H](CCCCN)C(=O)N[C@@H](CCCNC(=N)N)C(=O)N[C@H]3CSSC[C@@H](C(=O)O)NC(=O)[C@H](CSSC[C@H](NC3=O)C(=O)N[C@@H](Cc3ccc(O)cc3)C(=O)N[C@@H](CC(C)C)C(=O)N[C@@H](CC(=O)O)C(=O)N[C@@H](CCC(=O)O)C(=O)N[C@@H](Cc3ccc(O)cc3)C(=O)NCC(=O)N2)NC(=O)[C@H](CCCNC(=N)N)NC1=O` [β-gB1] (HELM PEPTIDE1{Y.E.T.G.C.K.R.C.C.Y.L.D.E.Y.G.C.I.R.C.C}$PEPTIDE1,PEPTIDE1,5:R3-16:R3|PEPTIDE1,PEPTIDE1,8:R3-20:R3|PEPTIDE1,PEPTIDE1,9:R3-19:R3$$$V2.0; N-terminus and C-terminus assumed), the “Increase of LC3B-II/LC3B-I ratio compared to control” value (LC3B; western blot band intensity) is reported as “about 3 fold”, the “Increase of expression of LC3B-II isoform vs control” value (LC3B; western blot densitometry relative to GAPDH, normalized to vehicle control, mean) is reported as 2.8 fold and the “Expression of LC3B-I isoform vs control” value (LC3B; western blot densitometry relative to GAPDH, normalized to vehicle control) is reported as “did not alter the expression”. The Antimicrobial effect (Candida tropicalis) was “does not exhibit an antimicrobial effect”, the Antimicrobial effect (Escherichia coli) was “does not exhibit an antimicrobial effect” and the “Increase of cell survivability under hypoxia” value (H9c2 cells [1]; H9c2, 1 µM peptide, range printed jointly for H9c2 and SH-SY5Y) was 22–24%. The “Increase of cell survivability under hypoxia” value (H9c2 cells [1]; H9c2, 10 µM peptide, triplicates) was 37%, the “Expression of caspase-3 in treated cells” value (caspase-3) was “remained unchanged” and the “Increase of cell survivability under hypoxia-reoxygenation” value (H9c2 cells [2]) was 24%. For the same compound, the “Cell viability (growth or death) under normoxia” value (H9c2 cells [3]) was “No change in cell viability; also recorded: no significant effect on the growth or death”, the “Cytotoxicity / cell-membrane damage by LDH release” value (H9c2 cells [4]) was “no significant cytotoxicity or cell-membrane damaging effects” and the “Expression of caspase-9 in treated cells” value (caspase-9) was “remained unchanged”.
